Tests used:
human IL-8 promoter [1] = experiment: IL-8 promoter luciferase assay, HeLa cells with wild type PPARγ; assay type: cell-based; conditions: GW347845 control
Procedure: (§1) For PPARγ activation assay, HEK293 cells were plated in 12-well cell culture plates and maintained in Dulbecco's modified Eagle's medium (DMEM) supplemented with 10% fetal bovine serum (FBS) at 37° C. under 5% CO2. Cells were changed to phenol red-free DMEM supplemented with 10% charcoal-stripped fetal bovine serum 3 hours before transfection by a standard calcium-phosphate precipitation method. Twelve hours after transfection, the cells were washed with phosphate-buffered saline (PBS) and fed again with fresh medium containing the indicated concentrations of compounds. After 36 hours, cells were harvested for β-galactosidase and luciferase activities as described previously (Li et al., Proc Natl Acad Sci USA 94:8479-84, 1997). The average normalized luciferase activity was determined via triplicate experiments. For IL-8 promoter assay, HeLa cells were maintained and transfected in the same way as described above. After transfection, cells were recovered for 4 hours before treatment with AJA, GW347845, or solvent. After 3-4 hours, cells were treated with or without 25 nM of phorbol myristate acetate (PMA) for 24 hours.
The IL-8 luciferase reporter controlled by the human IL-8 promoter (-97/-69) was cotransfected with mPPARγ or mPPARγ ΔAF2 mutant into HeLa cells. After transfection, cells were treated with AJA, GW347845 or solvent after PMA treatment for 24 hours. This was performed by determining the effect of AJA on IL-8 promoter activity and the role of PPARγ in this process. IL-8 is a biomarker for inflammation, and reduction of IL-8 levels correlates with a decrease in inflammation. The involvement of PPARγ in regulating IL-8 promoter activity was determined by comparing the IL-8 promoter activity in the presence of wild type PPARγ or its ΔAF2 mutant. In the experiment illustrated in FIG. 6A, PMA stimulated IL-8 promoter activity 3 fold, which was set as 100% promoter activity.

3T3 L1 fibroblasts = experiment: Adipocyte differentiation assay, Oil Red O staining; assay type: cell-based; conditions: 1 μM GW347845, 7 days, 10 μg/ml insulin
Procedure: The adipocyte differentiation assay was performed as described by Mukherjee et. al. (Mol Endocrinol 14: 1425-33, 2000). The 3T3 L1 cells (American Type Culture Collection) were cultured in DMEM media supplemented with 10% calf serum. Two days after reaching confluence, cells were treated with AJA, GW347845, or vehicle (0.1% DMSO) in the presence of 10 μg/ml insulin every other day. After 10 days of treatment with AJA or 7 days with GW347845 at confluence, cells were fixed and stained with Oil Red O (Sigma). For RT-PCR, total cellular RNAs were isolated by TRIzol (Gibco). Reverse transcriptase polymerase chain reaction (RT-PCR) was performed using the superscript first-strand synthesis kit (Invitrogen). After first-strand cDNA was synthesized by use of oligo (dT), cDNA was amplified by PCR. […]
3T3 L1 fibroblasts cells were cultured in DMEM supplemented with 10% calf serum. […] The cells were treated for 10 days with AJA, or 7 days with GW347845, and lipid accumulation in cells was assessed by Oil Red O staining.

[2] = tested on: PPARγ2 and aP2 gene expression in 3T3 L1 cells; experiment: RT-PCR of adipocyte-specific genes; assay type: cell-based; conditions: versus vehicle control
Procedure: The adipocyte differentiation assay was performed as described by Mukherjee et. al. (Mol Endocrinol 14: 1425-33, 2000). The 3T3 L1 cells (American Type Culture Collection) were cultured in DMEM media supplemented with 10% calf serum. Two days after reaching confluence, cells were treated with AJA, GW347845, or vehicle (0.1% DMSO) in the presence of 10 μg/ml insulin every other day. After 10 days of treatment with AJA or 7 days with GW347845 at confluence, cells were fixed and stained with Oil Red O (Sigma). For RT-PCR, total cellular RNAs were isolated by TRIzol (Gibco). Reverse transcriptase polymerase chain reaction (RT-PCR) was performed using the superscript first-strand synthesis kit (Invitrogen). After first-strand cDNA was synthesized by use of oligo (dT), cDNA was amplified by PCR. The forward primers and reverse primers used in the amplifications were 5′-GCTGTTATGGGTGAAACTCTGGGAG-3′(SEQ ID NO: 1), and 5′-CTTCATGAGGCCTGTTGTAGAGC-3′ (SEQ ID NO:2), for PPARγ2, 5′-GAGCAAATGGAGTTCCCAGATG-3′ (SEQ ID NO: 3), and 5′-GCAAACAATGGGAATAGTTCACAGTAG-3′ (SEQ ID NO: 4), for aP2, and 5′-GACCACAGTCCATGCCATCAC-3′(SEQ ID NO: 5), and 5′-CATACCAGGAAATGAGCTGAC-3′ (SEQ ID NO: 6), for GAPDH. PCR amplifications were performed in 50 μL volume with Taq DNA polymerase for 30 cycles.
To confirm that AJA and GW347845 induce 3T3 L1 cell differentiation into adipocytes, the expression levels of the adipocyte-specific genes PPARγ2 and aP2 were measured by RT-PCR. Total RNA was isolated after AJA or GW347845 treatment, and compared with vehicle control. Reverse transcription was conducted and the relative amounts of PPARγ2 and aP2 transcripts were measured by PCR reactions using primer sets specific to each gene. PCR products were analyzed on 1% agarose gel and stained with Ethidium Bromide. […] As a control for the induction specificity and the PCR amplification reaction, the expression levels of GADPH were measured in all samples, and found not affected by any treatment.

human IL-8 promoter [3] = experiment: IL-8 promoter luciferase assay, HeLa cells with PPARγ ΔAF2 mutant; assay type: cell-based; conditions: cells transfected with PPARγ ΔAF2 mutant
Procedure: as §1, with “After 3-4 hours, cells were treated with or without 25 nM of phorbol myristate acetate (PMA) for 24 hours.” left out
The IL-8 luciferase reporter controlled by the human IL-8 promoter (-97/-69) was cotransfected with mPPARγ or mPPARγ ΔAF2 mutant into HeLa cells. […] The involvement of PPARγ in regulating IL-8 promoter activity was determined by comparing the IL-8 promoter activity in the presence of wild type PPARγ or its ΔAF2 mutant. […]

PPARγ = target: T1, PPARγ (Homo sapiens, UniProt P37231); experiment: Activation of PPARγ by natural cannabinoids (no method given)
T1 sequence (P37231 1-505): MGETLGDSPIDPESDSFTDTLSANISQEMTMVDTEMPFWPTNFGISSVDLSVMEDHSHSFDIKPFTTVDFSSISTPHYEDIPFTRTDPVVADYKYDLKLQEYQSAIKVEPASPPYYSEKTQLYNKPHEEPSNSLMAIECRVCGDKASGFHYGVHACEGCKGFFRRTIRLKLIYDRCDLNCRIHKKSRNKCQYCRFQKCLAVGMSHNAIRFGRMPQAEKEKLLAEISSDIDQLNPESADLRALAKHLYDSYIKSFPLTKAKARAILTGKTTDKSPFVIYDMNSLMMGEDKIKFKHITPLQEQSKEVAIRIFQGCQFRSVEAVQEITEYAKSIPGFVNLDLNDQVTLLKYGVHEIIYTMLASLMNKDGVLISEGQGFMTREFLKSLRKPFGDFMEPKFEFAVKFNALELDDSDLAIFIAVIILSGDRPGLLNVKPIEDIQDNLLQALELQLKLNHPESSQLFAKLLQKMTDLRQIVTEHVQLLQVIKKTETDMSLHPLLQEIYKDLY

Row | Compound | reduction of IL-8 promoter activity (human IL-8 promoter [1]) | lipid accumulation, Oil Red O staining (3T3 L1 fibroblasts) | PPARγ2 gene expression [2] | aP2 gene expression [2] | effect on IL-8 promoter activity (human IL-8 promoter [3]) | activation of PPARγ (PPARγ)
1 | COC(=O)c1ccccc1N[C@@H](Cc1ccc(OCCc2nc(-c3ccccc3)oc2C)cc1)C(=O)O [GW347845, reference compound] | dramatically reduced IL-8 promoter activity | dramatic increase in lipid droplet staining | enhanced PPARγ2 and aP2 gene expression significantly | enhanced PPARγ2 and aP2 gene expression significantly | not with the ΔAF2 mutant | 
2 | CCCCCc1cc(O)c2c(c1)OC(C)(C)[C@@H]1CCC(C)=C[C@@H]21 [THC, Tetrahydrocannabinol] |  |  |  |  |  | also activate PPARγ

— patent publication US20040186166A1, “Cannabinoid analogs as peroxisome proliferator activated nuclear receptor gamma activators” (priority 2002, published 2004)
